Data from patent US20090047243A1, “COMBINATIONS FOR THE TREATMENT OF B-CELL PROLIFERATIVE DISORDERS” (priority 2007, published 2009).
Counter-ions that a name gives are not always drawn. Like-named read-outs stand apart in the source and are kept apart here.

What was measured:
[1] = system: phosphodiesterase (PDE) types; details: PDE type(s) in brackets after the name; cited from earlier work
[2] = system: human multiple myeloma cells (MM.1S); assay: Anti-proliferation assay (ATPLite, 72 h); assay type: cell-based; set-up: key to synergy score / synergy (score), PDEi × HE-NECA: S = lnfX·lnfY·ΣIdata(Idata−ILoewe), volume over Loewe additivity; details: for inhibition at 0.256 µM / inhibition at 0.767 µM / inhibition at 2.3 µM / inhibition at 6.9 µM / inhibition at 20.7 µM: Homo sapiens, MM1.S, read-out: percent inhibition of ATP in MM.1S cells; for inhibition at 0.256 µM: Papaverine 0.256 μM; for inhibition at 0.767 µM: Papaverine 0.767 μM; for inhibition at 2.3 µM: Papaverine 2.3 μM; for inhibition at 6.9 µM: Papaverine 6.9 μM; for inhibition at 20.7 µM: Papaverine 20.7 μM
Procedure: (§1) ANBL6 and INA-6 culture media was also supplemented with 10 ng/ml IL-6. […] MM.1S, MM.1R, OCI-ly10, Karpas 422, and SU-DHL6 cells were provided by the Dana Farber Cancer Institute. H929, RPMI-8226, GA-10, and Farage cells were from ATCC (Cat #'s CCL-155, CRL-9068, CRL-2392 and CRL-2630 respectively). MOLP-8, EJM, KSM-12-PE, and OPM2 were from DSMZ. The ANBL6 and INA-6 cell lines were provided by the M. D. Anderson Cancer Research Center. Compounds were prepared in DMSO at 1000× the highest desired concentration. Master plates were generated consisting of serially diluted compounds in 2- or 3-fold dilutions in 384-well format. For single agent dose response curves, the master plates consisted of 9 individual compounds at 12 concentrations in 2- or 3-fold dilutions. For combination matrices, master plates consisted of individual compounds at 6 or 9 concentrations at 2- or 3-fold dilutions. […] To obtain combination data, two master plates were diluted into the assay plates. […] Thirty microliters of ATPLite (Perkin Elmer) at room temperature was then added to each well. […] Measurements were taken at the top of the well using a luminescence aperture and a read time of 0.1 seconds per well. The percent inhibition (% I) for each well was calculated using the following formula: % I=[(avg. untreated wells-treated well)/(avg. untreated wells)]×100. […] Negative inhibition values result from local variations in treated wells as compared to untreated wells. […] The uncertainty of each fitted parameter was estimated from the range over which the change in reduced chi-squared was less than one, or less than minimum reduced chi-squared if that minimum exceeded one, to allow for underestimated σI errors. Single agent curve data were used to define a dilution series for each compound to be used for combination screening in a 6×6 matrix format. […] The Loewe additivity model was used to quantify combination effects. […] A “Synergy Score” was also used, where the Synergy Score S=log fX log fY ΣIdata(Idata-ILoewe), summed over all non-single-agent concentration pairs, and where log fX,Y is the natural logarithm of the dilution factors used for each single agent. This effectively calculates a volume between the measured and Loewe additive response surfaces, weighted towards high inhibition and corrected for varying dilution factors. An uncertainty σS was calculated for each synergy score, based on the measured errors for the Idata values and standard error propagation.

[3] = system: H929 multiple myeloma cell line; assay: Anti-proliferation assay (ATPLite, 72 h); assay type: cell-based, human; set-up: key: S = lnfX·lnfY·ΣIdata(Idata−ILoewe), volume over Loewe additivity
Procedure: as §1

[4] = system: RPMI-8226 multiple myeloma cell line; assay: Anti-proliferation assay (ATPLite, 72 h); assay type: cell-based, human; set-up: key: S = lnfX·lnfY·ΣIdata(Idata−ILoewe), volume over Loewe additivity
Procedure: as §1

[5] = system: human multiple myeloma cells (MM.1R); assay: Anti-proliferation assay (ATPLite, 72 h); assay type: cell-based; set-up: key: S = lnfX·lnfY·ΣIdata(Idata−ILoewe), volume over Loewe additivity
Procedure: as §1

[6] = system: human multiple myeloma cells (MM.1R) transfected with siRNA; assay: Anti-proliferation assay after siRNA transfection; assay type: cell-based; details: MM.1R, siRNA targeting PDE 2A, HE-NECA 0 nM
Procedure: siRNA to adenosine receptor A1, A2A, A3, PDE 2A, PDE 3B, PDE 4B, PDE 4D and PDE 7A, and control siRNA siCON were purchased from Dharmacon. A2B siRNA was purchased from Invitrogen. Electroporations were performed using an Amaxa Nucleoporator (program S-20) and solution V. siRNAs were used at 50 nM. […] RNA was isolated using Qiagen RNAeasy kits, and targets quantified by RT-PCR using gene specific primers purchased from Applied Biosystems.
Cells were added to 384-well plates 24 hours prior to compound addition such that each well contained 2000 cells in 35 μL of media. Master plates were diluted 100× (1 μL into 100 μL) into 384-well dilution plates containing only cell culture media. 4.5 μL from each dilution plate was added to each assay plate for a final dilution of 1000×. To obtain combination data, two master plates were diluted into the assay plates. Following compound addition, assay plates were kept at 37° C. and 5% CO2 for 72 hours. Thirty microliters of ATPLite (Perkin Elmer) at room temperature was then added to each well. Final amount of ATP was quantified within 30 minutes using ATPLite luminescent read-out on an Envision 2103 Multilabel Reader (Perkin Elmer). Measurements were taken at the top of the well using a luminescence aperture and a read time of 0.1 seconds per well.
We also examined the antiproliferative activity of adenosine receptor agonists when the MM cell line MM.1R was transfected with siRNA targeting the A1, A2A, A2B or A3 receptor. Specific gene silencing (A1, A2A, A2B, or A3) was greater than 50% as determined by real time PCR analysis 48 hours post-transfection. At 48 hours post-transfection, cells were exposed to adenosine receptor agonist, incubated an additional 72 hours, and compounds assayed for antiproliferative activity. Representative data is in Table 34. Cells transfected with adenosine receptor siRNA or a control siRNA (scrambled sequences designed so that cellular transcriptsare not targeted) were treated with the adenosine receptor agonist ADAC. […] Similar results were obtained with a second siRNA with specificity for different region of the A2A receptor mRNA, confirming that the reduction in adenosine receptor agonist activity is the result of specific siRNA targeting of the A2A receptor (data not shown).
In our experiments, PDE gene silencing was always greater than 50% as confirmed by real time PCR analysis 48 hours post-transfection. At 48 hours post-transfection, cells were exposed to adenosine receptor agonist and PDE inhibitor, incubated an additional 72 hours, and compounds assayed for antiproliferative activity. Representative data is in Tables 39-45. For each analysis, the activity of cells transfected with an siRNA targeting a specific PDE was compared to cells transfected with a control non-targeting siRNA (siCON).

[7] = PDE inhibitor crossed with (S) ENBA, MM.1S
[8] = PDE inhibitor crossed with Chloro-IB-MECA, MM.1S
[9] = PDE inhibitor crossed with (S) ENBA, H929
[10] = PDE inhibitor crossed with Chloro-IB-MECA, H929
[11] = 10 ng/mL IL-6, HE-NECA conc. (μM)
[12] = PDE inhibitor crossed with ADAC, MM.1S
[13] = PDE inhibitor crossed with HE-NECA, MM.1S
[14] = in combination with adenosine receptor agonist HE-NECA, MM.1S
[15] = PDE inhibitor crossed with ADAC, H929
[16] = PDE inhibitor crossed with HE-NECA, H929
[17] = in combination with adenosine receptor agonist HE-NECA, H929
[18] = in combination with adenosine receptor agonist HE-NECA, RPMI-8226

## CC(C)Cn1c(=O)n(C)c(=O)c2[nH]cnc21 [IBMX]
[1]
  PDE inhibitors (specificity): IBMX (pan)
[2]; [7]
  synergy score: 0.055

## Nc1nc(N)nc(-c2cc(Cl)ccc2Cl)n1 [Irsogladine]
[1]
  PDE inhibitors (specificity): Irsogladine (4)
[2]; [7]
  synergy score: 0.38
[2]; [8]
  synergy score: 0.25
[3]; [9]
  synergy score: 0.09
[3]; [10]
  synergy score: 0.05

## COc1ccc(Cc2nccc3cc(OC)c(OC)cc23)cc1OC [Papaverine hydrochloride, 1-[(3.4-dimethoxyphenyl)-methyl]-6,7-dimethoxyisoquinolone]
[2]; [11]
  inhibition at 0.256 µM: -2.4%
  inhibition at 0.767 µM: -0.1%
  inhibition at 2.3 µM: 7.9%
  inhibition at 6.9 µM: 46%
  inhibition at 20.7 µM: 70%
[2]; no IL-6, HE-NECA conc. (nM)
  inhibition at 0.256 µM: 9.1%
  inhibition at 0.767 µM: 8.8%
  inhibition at 2.3 µM: 23%
  inhibition at 6.9 µM: 46%
  inhibition at 20.7 µM: 68%
[2]; [7]
  synergy score: 2.24
[2]; [12]
  synergy score: 3.55
[2]; [8]
  synergy score: 2.67
[2]; [13]
  synergy score: 2.09
[2]; in combination with adenosine receptor agonist ADAC, MM.1S
  synergy score: 3.554
[2]; [14]
  synergy score: 2.087
[3]; [9]
  synergy score: 0.77
[3]; [15]
  synergy score: 1.19
[3]; [10]
  synergy score: 1.42
[3]; [16]
  synergy score: 1.03
[3]; in combination with adenosine receptor agonist ADAC, H929
  synergy score: 1.193
[3]; [17]
  synergy score: 1.025
[4]; in combination with adenosine receptor agonist ADAC, RPMI-8226
  synergy score: 1.158
[4]; [18]
  synergy score: 0.3933
[5]; in combination with adenosine receptor agonist ADAC, MM.1R
  synergy score: 3.395
[5]; in combination with adenosine receptor agonist HE-NECA, MM.1R
  synergy score: 2.128

## CC(=O)CCCCn1c(=O)c2c(ncn2C)n(C)c1=O [Pentoxifylline]
[1]
  PDE inhibitors (specificity): Pentoxifylline (pan)
[2]; [7]
  synergy score: 0.49
[2]; [8]
  synergy score: 0.05
[2]; [13]
  synergy score: 0.29
[3]; [9]
  synergy score: 0.02
[3]; [10]
  synergy score: 0.02
[3]; [16]
  synergy score: 0.09

## COc1ccc([C@@H]2CNC(=O)C2)cc1OC1CCCC1 [R-(−)-Rolipram]
[2]; 6×6 cross of PDE inhibitor or PDE inhibitor mixture with HE-NECA, MM.1S
  synergy (score), PDEi × HE-NECA: 2.33
[2]; in combination with adenosine receptor agonist CGS-21680, MM.1S
  synergy score: 1.92
[2]; [14]
  synergy score: 2.965
[2]; in combination with adenosine receptor agonist regadenoson, MM.1S
  synergy score: 1.83
[6]; R-(−)-Rolipram 0.23 μM
  Antiproliferative activity: 3.8
[6]; R-(−)-Rolipram 2 μM
  Antiproliferative activity: 8.1
[6]; R-(−)-Rolipram 6.1 μM
  Antiproliferative activity: 5.3
[6]; R-(−)-Rolipram 18 μM
  Antiproliferative activity: 7.7
[6]; R-(−)-Rolipram […]
  Antiproliferative activity: −1.2
[3]; 6×6 cross of PDE inhibitor or PDE inhibitor mixture with HE-NECA, H929
  synergy (score), PDEi × HE-NECA: 1.88
[3]; in combination with adenosine receptor agonist CGS-21680, H929
  synergy score: 1.93
[3]; [17]
  synergy score: 2.148
[3]; in combination with adenosine receptor agonist regadenoson, H929
  synergy score: 1.91
[4]; in combination with adenosine receptor agonist CGS-21680, RPMI 8226
  synergy score: 2.03
[4]; [18]
  synergy score: 1.16
[4]; in combination with adenosine receptor agonist regadenoson, RPMI 8226
  synergy score: 0.63
[5]; in combination with adenosine receptor agonist CGS-21680, MM.1R
  synergy score: 4.54
[5]; in combination with adenosine receptor agonist regadenoson, MM.1R
  synergy score: 3.62

## CN/C(=N\c1ccc(C2=NNC(=O)CC2C)cc1)NC#N (stereo not drawn) [Siguazodan]
[1]
  PDE inhibitors (specificity): Siguazodan (3)
[2]; [7]
  synergy score: 1.39
[2]; [8]
  synergy score: 0.42
[2]; [13]
  synergy score: 0.72
[3]; [9]
  synergy score: 0.13
[3]; [10]
  synergy score: 0.09
[3]; [16]
  synergy score: 0.08

## CCOC(=O)C1=C[C@]2(CC)CCCN3CCc4c(n1c1ccccc41)[C@@H]32 [Vinoceptine]
[1]
  PDE inhibitors (specificity): Vinoceptine (1)
[2]; [7]
  synergy score: 0.25
[2]; [12]
  synergy score: 0.02
[2]; [13]
  synergy score: 0.26
[3]; [9]
  synergy score: 0.21
[3]; [15]
  synergy score: 0.01
[3]; [16]
  synergy score: 0

## Cc1[nH]c(=O)c(C#N)cc1-c1ccncc1 [milrinone]
[1]
  PDE inhibitors (specificity): Milrinone (3)
[2]; [7]
  synergy score: 1.31
[2]; [8]
  synergy score: 0.25
[2]; [13]
  synergy score: 0.33
[3]; [10]
  synergy score: 0.08
[3]; [16]
  synergy score: 0.15

## (R)-Rolipram
[1]
  PDE inhibitors (specificity): (R)-Rolipram (4)
[2]; [7]
  synergy score: 2.08
[2]; [12]
  synergy score: 0.97
[2]; [8]
  synergy score: 0.84
[2]; [13]
  synergy score: 4.38
[3]; [9]
  synergy score: 0.82
[3]; [15]
  synergy score: 0.51
[3]; [10]
  synergy score: 0.63
[3]; [16]
  synergy score: 2.51
